# Results from patent US20260285849A1, “METHYLOPHIOPOGONONE A DERIVATIVE, AND PREPARATION AND USE THEREOF” (INSTITUTE OF MATERIA MEDICA, CHINESE ACADEMY OF MEDICAL …, priority 2022, published 2026).
# Like-named read-outs stand apart in the source and are kept apart here. Marks after values point to notes of the source that are not given here.
# Legend:
# [1] = tested on: mice with isoproterenol (ISO)-induced ischemic heart disease; assay: ISO-induced ischemic heart disease mouse model: Ca2+ in myocardial tissue; assay type: in vivo
# Description: (§1) Male C57BL/6 mice were allowed to acclimate to the environment and then randomly divided into 9 groups, namely the blank control group, the ISO model group, the ISO+diltiazem 20 mg/kg positive control drug group, the ISO+Formula I (0.1, 0.5, 2 mg/kg) groups, and the ISO+Formula II (0.1, 0.5, 2 mg/kg) groups. Mice in the drug administration groups were intragastrically administered the corresponding doses of Formula I and Formula II compounds once a day at the same time. Mice in the positive drug diltiazem group were intragastrically administered the corresponding dose of diltiazem once a day. Mice in the blank control group and the model group were given the same amount of solvent (0.5% CMC-Na). The administration volume was 10 mL/kg, and the administration was continuous for 11 days.
# (§2) From the 4th to the 10th day of drug administration, ISO modeling was carried out. The blank control group was subcutaneously injected with normal saline, and mice in the other groups were subcutaneously injected with ISO at a dose of 40 mg/kg (modeling was performed 2 hours after drug administration), for a total of 7 times.
# Calcium ion detection in myocardial tissue: After the experiment ended, some myocardial tissue was taken to prepare a 10% myocardial tissue homogenate with ultrapure water. The homogenate was centrifuged at 1200 rpm for 20 minutes at 4° C. to separate the supernatant of the myocardial tissue homogenate. The calcium ion content was determined according to the kit instructions; protein quantification was performed using the BCA protein assay method.
# [2] = tested on: mice with isoproterenol (ISO)-induced ischemic heart disease; assay: ISO-induced ischemic heart disease mouse model: myocardial tissue pathology (H&E); assay type: in vivo; details: for The number of animals with lesion degree + / The number of animals with lesion degree ++ / The number of animals with lesion degree +++ / The number of animals with lesion degree ++++ / The number of animals with lesion degree +++++ / The number of animals with lesion degree − / average score of myocardial tissue lesion degree: H&E
# Description: as §1, §2
# Pathological detection of myocardial tissue: After the experiment ended, the heart was washed with ice-cold physiological saline and dried with absorbent paper. It was then cut transversely into two halves. One-third of the part closer to the apex of the heart was fixed in a 4% paraformaldehyde solution. After dehydration with gradient ethanol and clearing with xylene, it was immersed in melted paraffin three times for embedding, 30 minutes each time. After embedding, continuous sections (about 4 μm thick) were made. Routine hematoxylin and eosin (H.E.) staining was performed. The pathological state of the myocardial tissue was observed under an optical microscope, photographed, and analyzed.
# • −: No abnormalities were observed. • +: No myocardial tissue damage was seen. There was local hypertrophy of cardiomyocytes in the interventricular septum and papillary muscles, local edema and degeneration of cardiomyocytes, widening of the local muscle space in the lesion area, and mild non-specific inflammation in the interstitium. • ++: No obvious myocardial tissue damage (cardiomyocyte necrosis) was observed. There was local hypertrophy of cardiomyocytes in the interventricular septum and papillary muscles, local edema and degeneration of cardiomyocytes. Myofibril dissolution (disappearance of cross-striations) could be seen in local areas. The lesions were relatively limited and distributed in small foci. Non-specific inflammation was visible in the interstitium, and local fibrous tissue hyperplasia in the interstitium was noted. • +++: There was obvious hypertrophy of cardiomyocytes in the interventricular septum and papillary muscles, local edema and degeneration of cardiomyocytes. […] The lesion was limited to the subendocardium of the local interventricular septum (or papillary muscle), with a limited and small affected area. Non-specific inflammation was visible in the interstitium of the lesion area, and local fibrous tissue hyperplasia in the interstitium was noted. • ++++: The hypertrophy of cardiomyocytes in the interventricular septum and papillary muscles is remarkable. Locally, there is edema and degeneration of cardiomyocytes; there is obvious damage (necrosis of cardiomyocytes) in the myocardial tissue of the local interventricular septum and papillary muscles. The lesions are distributed in foci (or small patches), and the affected area is relatively large. […] Locally, there is edema and degeneration of cardiomyocytes; the damage (necrosis of cardiomyocytes) of the myocardial tissue of the local interventricular septum and papillary muscles is severe. The damage (necrosis) lesions are distributed in patches and are connected to each other. Transmural myocardial tissue damage of the interventricular septum and papillary muscles can be seen locally.
# [3] = tested on: Rat H9C2 cardiomyocytes; details: 800 μM ISO 24 h, MTT 570 nm
# Description: (§3) Rat H9C2 cardiomyocytes in the logarithmic growth phase were seeded into 96-well plates at a density of 7×10^4 cells/mL, with 100 μL per well. […] After 24 hours of culture, the drug groups were treated with 800 μM ISO and the corresponding concentrations of drugs. The ISO model group received 800 μM ISO and an equal volume of DMSO, and the blank control group received an equal volume of DMSO. The cells were then cultured for another 24 hours. After removing the supernatant, 100 μL MTT solution (0.5 mg/mL) was added to each well and incubated in the cell culture incubator for 4 hours. After removing the supernatant, 150 μL DMSO was added to each well, mixed by shaking for 10 minutes, and the absorbance was measured at 570 nm using a microplate reader to calculate cell viability. Cell viability (%)=[(As−Ab)/(Ac−Ab)]×100%. As: Experimental well (medium with cells, MTT, ISO); Ac: Control well (medium with cells, MTT, without ISO); Ab: Blank well (medium without cells, MTT, without ISO).
# [4] = tested on: H9C2 cardiomyocytes; details: 6 h hypoxia, 12 h reoxygenation, CCK 450 nm
# Description: (§4) H9C2 cardiomyocytes in the logarithmic growth phase were seeded into 96-well plates at a density of 7×10^4 cells/mL, with 100 μL per well.
# (§5) After 24 hours of culture, the culture medium of the H/R and drug-treated groups was replaced with serum-free glucose-free DMEM medium (100 μL per well). The cells were then placed in an anaerobic incubator and cultured under hypoxic conditions in a 37° C. cell culture incubator. After 6 hours, the supernatant of the H/R and drug-treated groups was removed and replaced with high-glucose medium containing 10% fetal bovine serum (100 μL per well). Each drug-treated group received the corresponding concentration of the drug, while the H/R model group and the blank control group received an equal volume of DMSO.
# (§6) After removing the supernatant, 100 μL of CCK solution (the volume of CCK accounted for 10% of the DMEM culture medium volume) was added to each well. The cells were cultured in the cell culture incubator for 1 hour, and the absorbance was measured at 450 nm using a microplate reader to calculate the cell viability. Cell viability was calculated as follows: Cell viability (%)=(Experimental well-Blank well)/(Control well-Blank well)×100%.
# [5] = tested on: Rat H9C2 cardiomyocytes; details: 50 μM Ang II 24 h, MTT 570 nm
# Description: (§7) Rat H9C2 cardiomyocytes in the logarithmic growth phase were seeded at a density of 7×10^4 cells/mL into 96-well plates, with 100 μL per well. […] After 24 hours of culture, the drug treatment groups were respectively added with 50 μM Ang II and the corresponding concentration of the drug. The Ang II model group was added with 50 μM Ang II and an equal volume of DMSO, and the blank control group was added with an equal volume of DMSO. Then, the cells were cultured for another 24 hours. After removing the supernatant, 100 μL of MTT solution (0.5 mg/mL) was added to each well, and the plates were placed in an incubator for 4 hours. After removing the supernatant again, 150 μL of DMSO was added to each well, and the mixture was shaken and mixed evenly for 10 minutes. The absorbance was measured at 570 nm using a microplate reader to calculate the cell viability.
# (§8) Cell viability (%)=[(As−Ab)/(Ac−Ab)]×100% • As: Experimental well (culture medium containing cells, MTT, Ang II); • Ac: Control well (culture medium containing cells, MTT, without Ang II); • Ab: Blank well (culture medium without cells, MTT, without Ang II).
# [6] = tested on: Rat H9C2 cardiomyocytes; assay: cells; details: H9c2, 24 h, read-out: Cell survival rate
# Description: as §3
# [7] = tested on: H9C2 cardiomyocytes; assay: cells; details: Rattus norvegicus, H9c2, read-out: Cell viability
# Description: as §4, §5, §6
# [8] = tested on: Rat H9C2 cardiomyocytes; assay: cells; details: H9c2, 24 h, read-out: Cell viability
# Description: as §7, §8
compound,measurement,setting,value
O=c1c(Cc2ccc3c(c2)OCO3)coc2cc(O)cc(O)c12 [Formula I],Ca^2+,[1]; 0.1 mg/kg intragastric once a day 11 days,0.050 ± 0.008 mmol/gprot
same,Ca^2+,[1]; 0.5 mg/kg intragastric once a day 11 days,0.046 ± 0.010 mmol/gprot
same,Ca^2+,[1]; 2 mg/kg intragastric once a day 11 days,0.058 ± 0.009 mmol/gprot
same,The number of animals with lesion degree +,[2]; 0.1 mg/kg,0
same,The number of animals with lesion degree ++,[2]; 0.1 mg/kg,2
same,The number of animals with lesion degree +++,[2]; 0.1 mg/kg,5
same,The number of animals with lesion degree ++++,[2]; 0.1 mg/kg,2
same,The number of animals with lesion degree +++++,[2]; 0.1 mg/kg,0
same,The number of animals with lesion degree −,[2]; 0.1 mg/kg,0
same,average score of myocardial tissue lesion degree,[2]; 0.1 mg/kg,3.00 ± 0.71
same,The number of animals with lesion degree +,[2]; 0.5 mg/kg,2
same,The number of animals with lesion degree ++,[2]; 0.5 mg/kg,4
same,The number of animals with lesion degree +++,[2]; 0.5 mg/kg,4
same,The number of animals with lesion degree ++++,[2]; 0.5 mg/kg,0
same,The number of animals with lesion degree +++++,[2]; 0.5 mg/kg,0
same,The number of animals with lesion degree −,[2]; 0.5 mg/kg,0
same,average score of myocardial tissue lesion degree,[2]; 0.5 mg/kg,2.20 ± 0.79
same,The number of animals with lesion degree +,[2]; 2 mg/kg,6
same,The number of animals with lesion degree ++,[2]; 2 mg/kg,3
same,The number of animals with lesion degree +++,[2]; 2 mg/kg,0
same,The number of animals with lesion degree ++++,[2]; 2 mg/kg,0
same,The number of animals with lesion degree +++++,[2]; 2 mg/kg,0
same,The number of animals with lesion degree −,[2]; 2 mg/kg,1
same,average score of myocardial tissue lesion degree,[2]; 2 mg/kg,1.20 ± 0.63
same,pathological damage of myocardial tissue (H&E staining),"[2]; three doses (0.1, 0.5, 2 mg/kg) by gavage",significantly improve the pathological damage of myocardial tissue
same,OD,[3]; 0.1 μM,0.983 ± 0.144
same,OD,[3]; 0.3 μM,0.929 ± 0.105
same,OD,[3]; 1 μM,0.969 ± 0.065^###&&
same,OD,[3]; 3 μM,0.926 ± 0.045
same,OD,[3]; 5 μM,0.807 ± 0.088
same,OD,[3]; 10 μM,0.839 ± 0.091^###&
same,OD,[4]; 0.1 μM,0.630 ± 0082
same,OD,[4]; 0.3 μM,0.628 ± 0.061
same,OD,[4]; 1 μM,0.576 ± 0.063
same,OD,[4]; 3 μM,0.620 ± 0.069
same,OD,[4]; 5 μM,0.566 ± 0.074^(p = 0.07)
same,OD,[4]; 10 μM,0.575 ± 0.091
same,OD,[5]; 0.1 μM,0.809 ± 0.060
same,OD,[5]; 0.3 μM,0.780 ± 0.046
same,OD,[5]; 1 μM,0.791 ± 0.043
same,OD,[5]; 3 μM,0.816 ± 0.035
same,OD,[5]; 10 μM,0.823 ± 0.048
same,viability at 0.1 µM,[6],81.3%
same,viability at 0.3 µM,[6],76.8%
same,viability at 1 µM,[6],74%
same,viability at 3 µM,[6],76.6%
same,viability at 5 µM,[6],66.7%
same,viability at 10 µM,[6],69.4%
same,viability at 0.1 µM,[7],60.6%
same,viability at 0.3 µM,[7],60.3%
same,viability at 1 µM,[7],55.4%
same,viability at 3 µM,[7],59.6%
same,viability at 5 µM,[7],54.4%
same,viability at 10 µM,[7],55.3%
same,viability at 0.1 µM,[8],75.1%
same,viability at 0.3 µM,[8],72.5%
same,viability at 1 µM,[8],73.5%
same,viability at 3 µM,[8],75.9%
same,viability at 10 µM,[8],76.4%
